US11109593B2, “Isoxazolin-5-one derivative and herbicide containing same as active ingredient” (HOKKO CHEMICAL INDUSTRY CO., LTD., priority 2017, dated 2021)

Assays:
Type in all cases: in vivo
Amaranthus viridis [1] = assay: Test Example 4: herbicidal effect test by treatment of leave and stem in dry field farming (seven days after seeding); settings: 120 g/10a active ingredient; emulsion sprayed seven days after seeding; evaluated 14 days after treatment
Procedure, shortened: (§1)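 Weeds were seeded at 20 seeds per species into the top 1 cm of alluvial upland soil in pots, then sprayed 7 days after seeding with water-diluted emulsifiable concentrate at 100 L/10 a, giving 120 g active ingredient/10 a. Duplicate pots; herbicidal rate (%) was 14 days post-treatment, from dry weight versus untreated.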

Chenopodium album [2] = assay: as above; settings: 120 g/10a active ingredient; emulsion sprayed seven days after seeding; evaluated 14 days after treatment
Procedure, shortened: as §1

Echinochloa crus-galli [3] = assay: as above; settings: 120 g/10a active ingredient; emulsion sprayed seven days after seeding; evaluated 14 days after treatment
Procedure, shortened: as §1

southern crabgrass [4] = assay: as above; settings: 120 g/10a active ingredient; emulsion sprayed seven days after seeding; evaluated 14 days after treatment
Procedure, shortened: as §1

[5] = tested on: broad leaf weeds (Lindernia pyxidaria and Monochoria vaginalis); assay: Test Example 1: herbicidal effect test by treatment of rice paddy soil (immediately after seeding)
Procedure, shortened: (§2)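 Values are herbicidal rates (%) derived from average plant dry weight in treated versus untreated pots 14 days after treatment, run in duplicate. Treatment was a water-diluted emulsion dropped into flooded paddy soil right after sowing, at 120 g active ingredient per 10 ares.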

Scirpus juncoides [6] = assay: as above
Procedure, shortened: as §2

Echinochloa crus-galli [7] = assay: as above
Procedure, shortened: as §2

[8] = tested on: broad leaf weeds (Lindernia pyxidaria and Monochoria vaginalis); assay: Test Example 2: herbicidal effect test by treatment during growing period in paddy rice cultivation (seven days after seeding); settings: 120 g/10a active ingredient, assessed 14 days after treatment, dry weight vs untreated area
Procedure, shortened: (§3)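 Herbicidal rate (%) = {1 − treated/untreated mean plant dry weight} × 100, assessed in duplicate 14 days post-treatment. Emulsion formulations were diluted in water and dropped onto flooded (about 3 cm) paddy pots 7 days after seeding, giving 120 g a.i. per 10 ares. Plants were grown in a glass greenhouse.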

Scirpus juncoides [9] = assay: as above; settings: 120 g/10a active ingredient, assessed 14 days after treatment, dry weight vs untreated area
Procedure, shortened: as §3

Echinochloa crus-galli [10] = assay: as above; settings: 120 g/10a active ingredient, assessed 14 days after treatment, dry weight vs untreated area
Procedure, shortened: as §3

Amaranthus viridis [11] = assay: Test Example 3: herbicidal effect test by treatment of dry field farming soil (one day after seeding); settings: 120 g/10a active ingredient, evaluated 14 days after treatment
Procedure, shortened: (§4)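 Herbicidal rate (%) equals 1 minus treated/untreated mean plant dry weight, times 100, taken 14 days after treatment in duplicate pots. Emulsion diluted in water was applied at 100 L per 10 ares (120 g a.i. per 10 ares) one day after sowing 20 seeds per species into the top 1 cm of alluvial soil.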

Chenopodium album [12] = assay: as above; settings: 120 g/10a active ingredient, evaluated 14 days after treatment
Procedure, shortened: as §4

Echinochloa crus-galli [13] = assay: as above; settings: 120 g/10a active ingredient, evaluated 14 days after treatment
Procedure, shortened: as §4

southern crabgrass [14] = assay: as above; settings: 120 g/10a active ingredient, evaluated 14 days after treatment
Procedure, shortened: as §4

[15] = Lindernia pyxidaria, 120 g/10a active ingredient, dry weight vs untreated area, 14 days after treatment
[16] = Monochoria vaginalis, 120 g/10a active ingredient, dry weight vs untreated area, 14 days after treatment
[17] = 120 g/10a active ingredient, dry weight vs untreated area, 14 days after treatment
[18] = 120 g/10a active ingredient, 14 days after treatment, dry weight vs untreated area

| SMILES | herbicidal effect (herbicidal rate), Amaranthus viridis (Amaranthus viridis [1]) [%] | herbicidal effect (herbicidal rate), Chenopodium album (Chenopodium album [2]) [%] | herbicidal effect (herbicidal rate), Echinochloa crus-galli (Echinochloa crus-galli [3]) [%] | herbicidal effect (herbicidal rate), southern crabgrass (southern crabgrass [4]) [%] | Herbicidal rate (%) Lindernia pyxidaria [5, 15] [%] | Herbicidal rate (%) Monochoria vaginalis [5, 16] [%] | Herbicidal rate (%) Scirpus juncoides (Scirpus juncoides [6]; [17]) [%] | Herbicidal rate (%) Echinochloa crus-galli (Echinochloa crus-galli [7]; [17]) [%] | Herbicidal rate (%) Lindernia pyxidaria [8] [%] | Herbicidal rate (%) Monochoria vaginalis [8] [%] | Herbicidal rate (%) Scirpus juncoides (Scirpus juncoides [9]) [%] | Herbicidal rate (%) Echinochloa crus-galli (Echinochloa crus-galli [10]) [%] | herbicidal rate, Amaranthus viridis (Amaranthus viridis [11]) [%] | herbicidal rate, Chenopodium album (Chenopodium album [12]) [%] | herbicidal rate, Echinochloa crus-galli (Echinochloa crus-galli [13]) [%] | herbicidal rate, southern crabgrass (southern crabgrass [14]) [%] | Herbicidal rate (%) Lindernia pyxidaria ([5]; Lindernia pyxidaria, 120 g/10a active ingredient, 14 days after treatment, dry weight vs untreated area) [%] | Herbicidal rate (%) Monochoria vaginalis ([5]; Monochoria vaginalis, 120 g/10a active ingredient, 14 days after treatment, dry weight vs untreated area) [%] | Herbicidal rate (%) Scirpus juncoides (Scirpus juncoides [6]; [18]) [%] | Herbicidal rate (%) Echinochloa crus-galli (Echinochloa crus-galli [7]; [18]) [%] |
| --- | --- | --- | --- | --- | --- | --- | --- | --- | --- | --- | --- | --- | --- | --- | --- | --- | --- | --- | --- | --- |
| CCC(CC)n1oc(=O)c(Cc2ccccc2N(S(=O)(=O)C(F)(F)F)S(=O)(=O)C(F)(F)F)c1C [Compound 1-965] | 90 | 40 | 90 | 90 | 80 | 100 | 80 | 100 | 50 | 80 | 80 | 100 | 100 | 100 | 100 | 100 |  |  |  |  |
| Cc1c(Cc2ccccc2NS(=O)(=O)C(F)(F)F)c(=O)on1Cc1ccccc1 [Compound 1-180] | 0 | 40 | 50 | 50 | 90 | 90 | 90 | 90 | 80 | 90 | 90 | 70 | 30 | 30 | 80 | 80 |  |  |  |  |
| CCS(=O)(=O)N(c1ccccc1Cc1c(C)n(C(C)c2ccccc2)oc1=O)S(=O)(=O)C(F)(F)F (stereo not drawn) [Compound 1-917] | 40 | 40 | 90 | 90 | 90 | 90 | 90 | 90 | 90 | 90 | 90 | 90 | 90 | 90 | 90 | 90 |  |  |  |  |
| Cc1c(Cc2ccccc2N(S(=O)(=O)C(F)(F)F)S(=O)(=O)C(F)(F)F)c(=O)on1C1CCCc2ccccc21 (stereo not drawn) [Compound 1-1050] | 40 | 50 | 50 | 40 |  |  |  |  | 100 | 90 | 90 | 90 | 90 | 90 | 100 | 90 | 100 | 100 | 90 | 100 |
| Cc1c(Cc2ccccc2N(C(=O)CC(C)C)S(=O)(=O)C(F)(F)F)c(=O)on1C(C)(C)C [Compound 1-351] | 40 | 40 | 90 | 90 | 90 | 90 | 90 | 90 | 90 | 90 | 90 | 90 | 90 | 90 | 90 | 90 |  |  |  |  |
| Cc1ccc(C(C)n2oc(=O)c(Cc3ccccc3NS(=O)(=O)C(F)(F)F)c2C)cc1 (stereo not drawn) [Compound 1-208] | 40 | 40 | 90 | 0 | 80 | 90 | 90 | 90 | 60 | 90 | 80 | 90 | 40 | 40 | 100 | 50 |  |  |  |  |
| CCC(CC)n1oc(=O)c(Cc2ccccc2N(C(C)=O)S(=O)(=O)C(F)(F)F)c1C [Compound 1-295] | 40 | 40 | 90 | 90 | 90 | 90 | 90 | 90 | 90 | 90 | 90 | 90 | 90 | 90 | 90 | 90 |  |  |  |  |
| CCC(=O)N(c1ccccc1Cc1c(C)n(C(C)c2ccccc2)oc1=O)S(=O)(=O)C(F)(F)F (stereo not drawn) [Compound 1-321] | 40 | 40 | 90 | 90 | 90 | 90 | 90 | 90 | 90 | 90 | 90 | 90 | 90 | 90 | 90 | 90 |  |  |  |  |
| CCCCCC(c1ccccc1)n1oc(=O)c(Cc2ccccc2NS(=O)(=O)C(F)(F)F)c1C (stereo not drawn) [Compound 1-215] | 50 | 40 | 40 | 50 | 100 | 80 | 90 | 100 | 90 | 80 | 90 | 90 | 40 | 40 | 50 | 50 |  |  |  |  |
